# Assay results taken from patent US7569570B2, “Thienopyrimidines, process for preparing the same and use thereof” (Takeda Pharmaceutical Company Limited, priority 2002, dated 2009).
# Where a name gives a salt, the structure may show the parent alone.
# Key:
# Human GnRH Receptor = target: T1, Human GnRH Receptor (Homo sapiens, UniProt P30968); assay: 125I-leuprorelin binding inhibition, membrane fraction of human GnRH receptor-expressing CHO cells; conditions: 25° C. for 60 minutes, Hill plot
# T1 construct: expressed in transfected cells; host or cells: CHO (Chinese hamster ovary) cells
# T1 sequence (P30968 1-328): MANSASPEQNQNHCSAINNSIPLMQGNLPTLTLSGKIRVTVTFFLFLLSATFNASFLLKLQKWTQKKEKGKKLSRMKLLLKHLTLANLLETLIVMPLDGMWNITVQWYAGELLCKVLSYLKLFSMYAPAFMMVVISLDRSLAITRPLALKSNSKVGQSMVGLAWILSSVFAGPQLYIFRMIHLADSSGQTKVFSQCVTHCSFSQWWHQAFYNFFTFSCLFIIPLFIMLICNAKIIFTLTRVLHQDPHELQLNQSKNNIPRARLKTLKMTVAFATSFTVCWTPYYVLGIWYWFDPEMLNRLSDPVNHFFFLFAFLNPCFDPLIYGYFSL
# Method: (§1) (1) Preparation of ^125I-Leuprorelin
# (§2) To a tube containing 10 μl of a 3×10^−4 M aqueous solution of leuprorelin and 10 μl of 0.01 mg/ml lactoperoxidase, 10 μl (37 MBq) of a solution of Na^125I was added. After stirring, 10 μl of 0.001% H2O2 was added, and a reaction was carried out at room temperature for 20 minutes. By adding 700 μl of a 0.05% TFA (trifluoroacetic acid) solution, the reaction was stopped, and the solution was purified by reversed-phase HPLC. The HPLC conditions are shown below. ^125I-leuprorelin was eluted at a retention time of 26 to 27 minutes.
# (3) Preparation of a CHO (Chinese Hamster Ovarian) Cell Membrane Fraction Containing Human GnRH Receptor
# Human GnRH receptor-expressing CHO cells (10^9 cells) were suspended in phosphate-buffered saline supplemented with 5 mM EDTA (PBS-EDTA) and centrifuged at 100×g for 5 minutes. […]
# (§3) When the rat pituitary anterior lobe membrane fraction was used, the reaction was conducted at 4° C. for 90 minutes. […] After the filtration, the radioactivity of ^125I-leuprorelin remaining on the filter paper was measured with a γ-counter.
# (§4) (TB−SB)/(TB−NSB)×100 (SB: radioactivity when the compound is added, TB: maximum binding radioactivity, NSB: non-specific binding radioactivity) was calculated to find the binding inhibition rate (%) of each test substance. […]
# Rat GnRH Receptor = target: T2, Rat GnRH Receptor (Rattus norvegicus, UniProt P30969); assay: 125I-leuprorelin binding inhibition, rat pituitary anterior lobe membrane fraction; conditions: 4° C. for 90 minutes, Hill plot
# T2 construct: Anterior lobes of the pituitary glands were isolated from forty Wistar rats; from tissue; host or cells: rat (Wistar, male, 8 weeks) anterior pituitary membrane fraction
# T2 sequence (P30969 1-327): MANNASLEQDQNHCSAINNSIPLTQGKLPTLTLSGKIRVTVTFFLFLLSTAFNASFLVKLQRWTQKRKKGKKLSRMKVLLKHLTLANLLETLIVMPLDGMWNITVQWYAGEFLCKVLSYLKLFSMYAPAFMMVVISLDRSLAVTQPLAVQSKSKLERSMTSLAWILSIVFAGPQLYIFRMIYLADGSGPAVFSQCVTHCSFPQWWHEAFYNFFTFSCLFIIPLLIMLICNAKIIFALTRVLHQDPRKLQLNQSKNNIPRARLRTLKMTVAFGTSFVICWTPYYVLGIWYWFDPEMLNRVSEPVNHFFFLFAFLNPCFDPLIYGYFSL
# Method: as §1, §2
# (2) Preparation of a Pituitary Anterior Lobe Membrane […]
# as §3, §4
structure (smiles),measurement,setting,value
"CCNC(=O)Nc1ccc(-c2sc3c(c2CN(C)CCOC(C)C)c(=O)n(-c2ccccc2)c(=O)n3Cc2c(F)cccc2F)cc1 [Example 110, N-[4-(1-(2,6-difluorobenzyl)-[(2-(2-propoxy)ethyl(methyl)amino}methyl]-2,4-dioxo-3 phenyl-1,2,3,4-tetrahydrothieno[2,3-d]pyrimidin-6-yl)phenyl]-N′-ethylurea]",IC50,Human GnRH Receptor,< 0.0001 µM
same,melting point,,224 °C
same,IC50,Rat GnRH Receptor,0.2 µM
"CCNC(=O)Nc1ccc(-c2sc3c(c2CN(C)CCOC)c(=O)n(-c2ccccc2)c(=O)n3Cc2c(F)cccc2F)cc1 [Example 112, N-[4-(1-(2,6-difluorobenzyl)-5-{[(2-methoxyethyl)(methyl)amino]methyl}-2,4-dioxo-3-phenyl-1,2,3,4-tetrahydrothieno[2,3-d]pyrimidin-6-yl)phenyl]-N′-ethylurea 1 hydrochloride]",IC50,Human GnRH Receptor,0.0001 µM
same,IC50,Rat GnRH Receptor,0.2 µM
